# According to patent US20190224166A1, “Compositions and Methods for Treating Muscle Loss” (Augusta University Research Institute, Inc., priority 2018, published 2019):
# System: quadriceps muscle
# Assay: Proteomic analysis of quadriceps muscle of aged mice treated with 1-methyl-D-tryptophan (Table 1, TOPPGENE enrichment)
# Format: in vivo
# Procedure: Female mice 22 months of age were obtained from the National Institute on Aging and treated with saline (vehicle) or 1-methyl-D-tryptophan (1-MT, Sigma, 452483, lot#MKBZ1441V) at a low dose (10 mg/kg BW) or at a high dose (100 mg/kg BW). Mice were treated daily for 4 weeks. Treatments were administered i.p. with an injection volume of 0.2 ml following IACUC approved procedures. Mice were euthanized by CO2 overdose and muscles harvested for analysis. One quadriceps muscle was snap frozen for proteomics and the other quadriceps muscle fixed in buffered formalin for paraffin embedding and trichrome staining. The tibialis anterior was placed in PBS for amplex red assay.
# The IDO inhibitor, 1-methyl-D-tryptophan, blocks kynurenine production and reduces levels of ROS in muscle.
smiles,measurement,setting,value
Cn1cc(C[C@@H](N)C(=O)O)c2ccccc21 [1MT],1MT vs Control: UTP--glucose-1-phosphate uridylyltransferase,"Q91ZJ5, GN = Ugp2",0.9036
same,"1MT vs Control: Trifunctional enzyme subunit beta, mitochondrial","Q99JY0, GN = Hadhb",0.7
same,"1MT vs Control: Aconitate hydratase, mitochondrial","Q99KI0, GN = Aco2",0.8406
same,"1MT vs Control: Electron transfer flavoprotein subunit alpha, mitochondrial","Q99LC5, GN = Etfa",0.8462
same,1MT vs Control: O-acetyl-ADP-ribose deacetylase MACROD1,"Q922B1, GN = Macrod1",0.9167
same,1MT vs Control: Nucleoside diphosphate kinase B,"Q01768, GN = Nme2",0.9242
same,1MT vs Control: Transitional endoplasmic reticulum ATPase,"Q01853, GN = Vcp",0.904
same,1MT vs Control: Ubiquitin-like modifier-activating enzyme 1,"Q02053, GN = Uba1",0.5833
same,1MT vs Control: Voltage-dependent L-type calcium channel subunit alpha-1S,"Q02789, GN = Cacna1s",0.7143
same,"1MT vs Control: ATP synthase subunit alpha, mitochondrial","Q03265, GN = Atp5a1",0.6273
same,1MT vs Control: Corticosteroid-binding globulin,"Q06770, GN = Serpina6",0.3125
same,"1MT vs Control: Short-chain specific acyl-CoA dehydrogenase, mitochondrial","Q07417, GN = Acads",0.6
same,1MT vs Control: Protein-arginine deiminase type-2,"Q08642, GN = Padi2",0.3438
same,1MT vs Control: Puromycin-sensitive aminopeptidase,"Q11011, GN = Npepps",0.5
same,"1MT vs Control: 2-oxoglutarate dehydrogenase, mitochondrial","Q60597, GN = Ogdh",0.4671
same,1MT vs Control: Voltage-dependent anion-selective channel protein 3,"Q60931, GN = Vdac3",0.2609
same,1MT vs Control: Voltage-dependent anion-selective channel protein 1,"Q60932, GN = Vdac1",0.3333
same,1MT vs Control: Peroxiredoxin-2,"Q61171, GN = Prdx2",0.7895
same,"1MT vs Control: Hydroxyacyl-coenzyme A dehydrogenase, mitochondrial","Q61425, GN = Hadh",0.6364
same,1MT vs Control: Alpha-2-macroglobulin,"Q61838, GN = A2m",0.6316
same,1MT vs Control: Striated muscle-specific serine/threonine-protein kinase,"Q62407, GN = Speg",0.6667
same,"1MT vs Control: 10 kDa heat shock protein, mitochondrial","Q64433, GN = Hspe1",0.4
same,"1MT vs Control: Glycerol-3-phosphate dehydrogenase, mitochondrial","Q64521, GN = Gpd2",0.3077
same,1MT vs Control: Trifunctional purine biosynthetic protein adenosine-3,"Q64737, GN = Gart",0.8
same,1MT vs Control,"protein A2AUC9 Kelch-like protein 41, GN=Klhl41",1.077
same,1MT vs Control,"protein O08539 Myc box-dependent-interacting protein 1, GN=Bin1",1.064
same,1MT vs Control,"protein O70209 PDZ and LIM domain protein 3, GN=Pdlim3",1.412
same,1MT vs Control,"protein P04117 Fatty acid-binding protein, adipocyte, GN=Fabp4",1.1
same,1MT vs Control,"protein P05064 Fructose-bisphosphate aldolase A, GN=Aldoa",1.096
same,1MT vs Control,"protein P05132 cAMP-dependent protein kinase catalytic subunit alpha, GN=Prkaca",1
same,1MT vs Control,"protein P07309 Transthyretin, GN=Ttr",2.5
same,1MT vs Control,"protein P07310 Creatine kinase M-type, GN=Ckm",1.182
same,1MT vs Control,"protein P07758 Alpha-1-antitrypsin 1-1, GN=Serpina1a",1.091
same,1MT vs Control,"protein P08228 Superoxide dismutase [Cu—Zn], GN=Sod1",1.273
same,1MT vs Control,"protein P09103 Protein disulfide-isomerase, GN=P4hb",1.077
same,1MT vs Control,"protein P09411 Phosphoglycerate kinase 1, GN=Pgk1",1.089
same,1MT vs Control,"protein P10637 Microtubule-associated protein tau, GN=Mapt",3
same,1MT vs Control,"protein P10649 Glutathione S-transferase Mu 1, GN=Gstm1",1.152
same,1MT vs Control,"protein P13412 Troponin I, fast skeletal muscle, GN=Tnni2",1.5
same,1MT vs Control,"protein P13707 Glycerol-3-phosphate dehydrogenase [NAD(+)], cytoplasmic, GN=Gpd1",1.072
same,1MT vs Control,"protein P14231 Sodium/potassium-transporting ATPase subunit beta-2, GN=Atp1b2",1
same,1MT vs Control,"protein P15626 Glutathione S-transferase Mu 2, GN=Gstm2",1.111
same,1MT vs Control,"protein P16858 Glyceraldehyde-3-phosphate dehydrogenase, GN=Gapdh",1.167
same,1MT vs Control,"protein P17182 Alpha-enolase, GN=Eno1",1.039
same,1MT vs Control,"protein P17742 Peptidyl-prolyl cis-trans isomerase A, GN=Ppia",1.176
same,1MT vs Control,"protein P17751 Triosephosphate isomerase, GN=Tpi1",1.136
same,1MT vs Control,"protein P18826 Phosphorylase b kinase regulatory subunit alpha, skeletal muscle isoform, GN=Phka1",1.143
same,1MT vs Control,"protein P20029 78 kDa glucose-regulated protein, GN=Hspa5",1.522
same,1MT vs Control,"protein P21550 Beta-enolase, GN=Eno3",1.063
same,1MT vs Control,"protein P22599 Alpha-1-antitrypsin 1-2, GN=Serpina1b",1.028
same,1MT vs Control,"protein P23506 Protein-L-isoaspartate(D-aspartate) O-methyltransferase, GN=Pcmt1",1
same,1MT vs Control,"protein P23953 Carboxylesterase 1C, GN=Ces1c",1.08
same,1MT vs Control,"protein P26043 Radixin, GN=Rdx",1.267
same,1MT vs Control,"protein P26883 Peptidyl-prolyl cis-trans isomerase FKBP1A, GN=Fkbp1a",1.5
same,1MT vs Control,"protein P27546 Microtubule-associated protein 4, GN=Map4",3
same,1MT vs Control,"protein P28474 Alcohol dehydrogenase class-3, GN=Adh5",1.176
same,1MT vs Control,"protein P28654 Decorin, GN=Dcn",1.36
same,1MT vs Control,"protein P29699 Alpha-2-HS-glycoprotein, GN=Ahsg",1.111
same,1MT vs Control,"protein P31001 Desmin, GN=Des",1.133
same,1MT vs Control,"protein P45376 Aldose reductase, GN=Akr1b1",1.064
same,1MT vs Control,"protein P45591 Cofilin-2, GN=Cfl2",1
same,1MT vs Control,"protein P47791 Glutathione reductase, mitochondrial, GN=Gsr",1.25
same,1MT vs Control,"protein P47857 ATP-dependent 6-phosphofructokinase, muscle type, GN=Pfkm",1.013
same,1MT vs Control,"protein P50396 Rab GDP dissociation inhibitor alpha, GN=Gdi1",1.1875
same,1MT vs Control,"protein P51885 Lumican, GN=Lum",1.231
same,1MT vs Control,"protein P58252 Elongation factor 2, GN=Eef2",1.092
same,1MT vs Control,"protein P62631 Elongation factor 1-alpha 2, GN=Eef1a2",1.256
same,1MT vs Control,"protein P62908 40S ribosomal protein S3, GN=Rps3",1
same,1MT vs Control,"protein P63005 Platelet-activating factor acetylhydrolase IB subunit alpha, GN=Pafah1b1",1.25
same,1MT vs Control,"protein P63017 Heat shock cognate 71 kDa protein, GN=Hspa8",1.016
same,1MT vs Control,"protein P68134 Actin, alpha skeletal muscle, GN=Acta1",1.126
same,1MT vs Control,"protein P70296 Phosphatidylethanolamine-binding protein 1, GN=Pebp1",1.024
same,1MT vs Control,"protein P70402 Myosin-binding protein H, GN=Mybph",1.156
same,1MT vs Control,"protein P82349 Beta-sarcoglycan, GN=Sgcb",1
same,1MT vs Control,"protein P97384 Annexin A11, GN=Anxa11",1.375
same,1MT vs Control,"protein Q3TJD7 PDZ and LIM domain protein 7, GN=Pdlim7",1.111
same,1MT vs Control,"protein Q3TVI8 Pre-B-cell leukemia transcription factor-interacting protein 1, GN=Pbxip1",1
same,1MT vs Control,"protein Q3TXS7 26S proteasome non-ATPase regulatory subunit 1, GN=Psmd1",1.333
same,1MT vs Control,"protein Q3U0V1 Far upstream element-binding protein 2, GN=Khsrp",1
same,1MT vs Control,"protein Q3UZA1 CapZ-interacting protein, GN=Rcsd1",1.2
same,1MT vs Control,"protein Q5SX39 Myosin-4, GN=Myh4",1.106
same,1MT vs Control,"protein Q7TSH2 Phosphorylase b kinase regulatory subunit beta, GN=Phkb",1.083
same,1MT vs Control,"protein Q8BGQ7 Alanine--tRNA ligase, cytoplasmic, GN=Aars",1.5
same,1MT vs Control,"protein Q8BU85 Methionine-R-sulfoxide reductase B3, mitochondrial, GN=Msrb3",2.5
same,1MT vs Control,"protein Q8C7E7 Starch-binding domain-containing protein 1, GN=Stbd1",1
same,1MT vs Control,"protein Q8CGC7 Bifunctional glutamate/proline--tRNA ligase, GN=Eprs",1.333
same,1MT vs Control,"protein Q8CHP8 Phosphoglycolate phosphatase, GN=Pgp",1
same,1MT vs Control,"protein Q8CHS7 Dehydrogenase/reductase SDR family member 7C, GN=Dhrs7c",2.667
same,1MT vs Control,"protein Q8CHT0 Delta-1-pyrroline-5-carboxylate dehydrogenase, mitochondrial, GN=Aldh4a1",1
same,1MT vs Control,"protein Q8K4Z3 NAD(P)H-hydrate epimerase, GN=Apoa1bp",1
same,1MT vs Control,"protein Q8R1G2 Carboxymethylenebutenolidase homolog, GN=Cmbl",1.235
same,1MT vs Control,"protein Q8VCM7 Fibrinogen gamma chain, GN=Fgg",1.25
same,1MT vs Control,"protein Q8VHX6 Filamin-C, GN=Flnc",1.059
same,1MT vs Control,"protein Q9CPU0 Lactoylglutathione lyase, GN=Glo1",1.095
same,1MT vs Control,"protein Q9CZ30 Obg-like ATPase 1, GN=Ola1",3.25
same,1MT vs Control,"protein Q9D7X3 Dual specificity protein phosphatase 3, GN=Dusp3",1.5
same,1MT vs Control,"protein Q9D8N0 Elongation factor 1-gamma, GN=Eef1g",1.1
same,1MT vs Control,"protein Q9D172 ES1 protein homolog, mitochondrial, GN=D10Jhu81e",1.2
same,1MT vs Control,"protein Q9ESD7 Dysferlin, GN=Dysf",3
same,1MT vs Control,"protein Q9ET78 Junctophilin-2, GN=Jph2",1.381
same,1MT vs Control,"protein Q9ET80 Junctophilin-1, GN=Jph1",1.143
same,1MT vs Control,"protein Q9JKB3 Y-box-binding protein 3, GN=Ybx3",1.333
same,1MT vs Control,"protein Q9JKS4 LIM domain-binding protein 3, GN=Ldb3",1.037
same,1MT vs Control,"protein Q9QYG0 Protein NDRG2, GN=Ndrg2",1.015
same,1MT vs Control,"protein Q9R0Y5 Adenylate kinase isoenzyme 1, GN=Ak1",1.133
same,1MT vs Control,"protein Q9R062 Glycogenin-1, GN=Gyg1",1.538
same,1MT vs Control,"protein Q9WUZ7 SH3 domain-binding glutamic acid-rich protein, GN=Sh3bgr",1.057
same,1MT vs Control,"protein Q9Z1Z2 Serine-threonine kinase receptor-associated protein, GN=Strap",1.5
same,1MT vs Control,"protein Q9Z2U0 Proteasome subunit alpha type-7, GN=Psma7",3
same,1MT vs Control,"protein Q70KF4 Cardiomyopathy-associated protein 5, GN=Cmya5",1
same,1MT vs Control,"protein Q76MZ3 Serine/threonine-protein phosphatase 2A 65 kDa regulatory subunit A alpha isoform, GN=Ppp2r1a",1.125
same,1MT vs Control,"protein Q91VI7 Ribonuclease inhibitor, GN=Rnh1",1.111
same,1MT vs Control,"protein Q91YE8 Synaptopodin-2, GN=Synpo2",1.077
same,1MT vs Control,"protein Q99LX0 Protein deglycase DJ-1, GN=Park7",1.194
same,1MT vs Control,"protein Q99PR8 Heat shock protein beta-2, GN=Hspb2",1.5
same,1MT vs Control,"protein Q924M7 Mannose-6-phosphate isomerase, GN=Mpi",1.111
same,1MT vs Control,"protein Q04857 Collagen alpha-1(VI) chain, GN=Col6a1",1.5
same,1MT vs Control,"protein Q60864 Stress-induced-phosphoprotein 1, GN=Stip1",1.167
same,1MT vs Control,"protein Q61292 Laminin subunit beta-2, GN=Lamb2",1
same,1MT vs Control,"protein Q61584 Fragile X mental retardation syndrome-related protein 1, GN=Fxr1",1
same,1MT vs Control,"protein Q62234 Myomesin-1, GN=Myom1",1.113
same,1MT vs Control,"protein Q62446 Peptidyl-prolyl cis-trans isomerase FKBP3, GN=Fkbp3",1.429
same,1MT vs Control,"protein Q64105 Sepiapterin reductase, GN=Spr",1.5
same,1MT vs Control,"protein Q64727 Vinculin, GN=Vcl",1.333
